Laboratory results taken from BindingDB's records for doi:10.1016/j.bmcl.2011.07.114 (Pfizer, 2011).

Biological target: Histamine H4 receptor (Homo sapiens, UniProt Q9H3N8)
Experiment: Displacement of [3H]histamine from human histamine H4 receptor expressed in CHO cells after 90 mins by scintillation counting technique

| Ki | SMILES |
| --- | --- |
| 20 µM | COCc1ccc(CN2CC[C@H](Nc3cc(NCCC(C)(C)C)ncn3)C2)o1 |
| 20 µM | CC(C)(C)CCNc1cc(N[C@H]2CCN(Cc3cccc(F)c3O)C2)ncn1 |
